# Assay results reported in patent publication US9801373B2, “Compounds for alleviating phosphate starvation symptoms in plants” (Commissariat a l'Energie Atomique et aux Energies …, priority 2012, dated 2017).
# Several values for one entry are separate records, joined by “and”; a condition that tells them apart may be missing. Equal values may be shown once. Entries after “also recorded” stand apart in the source; their conditions may differ.
# Key:
# [1] = tested on: genes regulated by Pi starvation; experiment: Global transcriptomic analysis (CATMA) of roots; type: in vivo, Arabidopsis thaliana
# Method: (§1) Plant RNA was extracted with the RNeasy kit (QIAGEN, France). For transcriptome data, RNA were analysed by the CATMA technology (Complete Arabidopsis Transcriptome Microarray). For qPCR, poly(dT) cDNA were prepared from 500 ng total RNA with Superscript III reverse transcriptase (Invitrogen, France) and analysed on a LightCycler 480 apparatus (Roche Diagnostics, France) with the SYBR Green I Master kit (Roche Diagnostics, France) according to the manufacturer's instructions. Targets were quantified with specific primer pairs designed with Primer3 website (http://frodo.wi.mit.edu/primer3/) (see Table II below). Biological triplicates were performed for all experiments. Expression levels were normalized using At2g16600, At3g04120, At1g35160 and At1g32050 genes.
# To investigate on a wider scale the putative Phosphatin1 effect, a transcriptional analysis of the global genome was performed using the CATMA technology (http://www.catma.org/, URGV, France). It was compared transcript expression in roots of 14-days-old plantlets, grown in −Pi, −Pi+PTN1 or +Pi.
# Table III: Comparison of PTN1 treatment and phosphate supply on global transcriptomic analysis. For this analysis, 14-days-old WT root samples of plants grown on −Pi, −Pi+PTN1 (40 μM) and +Pi were used. Data are expressed as ratio values between +Pi and −Pi or −Pi+PTN1 and −Pi respectively.
# [2] = tested on: Pi uptake capacity; experiment: Phosphate uptake experiments (33PO4); type: in vivo, Arabidopsis thaliana; details: −Pi+PTN1 vs −Pi, 7-day-old plantlets, FIG. 3 (B)
# Method: Phosphate uptake experiments were performed as previously described by Narang et al. (2000). 24 seedlings per conditions were incubated separately in a phosphate incubation solution containing ^33PO4 (5 mM MES, 0.1 mM CaCl2, 20 μM KH2PO4, 0.15 μCi/ml ^33PO4) for 2 h. After incubation in the uptake solution, plantlets were transferred to a chilled desorption medium (5 mM MES, 0.1 mM CaCl2, 1 mM KH2PO4) for 2 h at 4° C. Then, the seedlings were dried in scintillation vials at 60° C. overnight. An amount of 2 ml of scintillation cocktail (InstaGel, PerkinElmer, Wellesley, Mass., USA) was added and the radioactivity was measured with a scintillation analyzer (TRICARB, Packard instrument company). The amount of phosphate absorbed during the experiment was calculated and normalized per cm of root.
# [3] = Total phosphorus content by ICP; type: in vivo, Arabidopsis thaliana; details: FIG. 3 (C)
# Method: (§2) For the quantification of ions content, 50 mg of dry weight of each sample were mineralized in 14% HNO3 using a MarsX microwave system (CEM) for the determination of macro- and microelements by inductively coupled plasma optical emission spectrometry (ICP OES Vista MPX, Varian). Biological triplicates were performed for all experiments.
# [4] = tested on: SQD2, MGD3, PLDz2, SQD1 and MGD2; experiment: qPCR of genes involved in lipid synthesis; type: in vivo, Arabidopsis thaliana; details: 40 μM, 14 days, FIG. 5 (A)
# Method: as §1
# [5] = tested on: phospholipids / glycolipids; experiment: Lipid composition of aerial part; type: in vivo, Arabidopsis thaliana
# Method: (§3) Lipids and anthocyanins were analyzed as previously described by Jouhet (2003) and Ticconi (2001).
# [6] = tested on: root cortical cells; experiment: Cortical cell size of root; type: in vivo, Arabidopsis thaliana; details: −Pi seedlings, FIG. 7 (C)
# [7] = tested on: lpr1, lpr2 and lpi mutants; experiment: Primary root growth of mutants with reduced root sensitivity to Pi starvation; type: in vivo, Arabidopsis thaliana; details: 7-days-old plants, PTN1 40 μM, FIG. 8
# Description: (§4) A “chemical genetics” approach has been carried out to isolate compounds that inhibit the phosphate (Pi) response in Arabidopsis thaliana. Compounds were screened for their ability to inhibit the expression of a phosphate starvation marker, namely the high affinity Pi transporter PHT1,4 gene. For the screening, the A. thaliana pht1;4-1 line (ecotype Wassilewskija) was chosen (Misson et al., 2004). It contains a T-DNA construct inserted into Pht1;4 gene creating a transcriptional fusion with a GUS reporter gene. For phenotypic analyses, A. thaliana Columbia and various lines derived from this ecotype were used. They are either transgenic lines expressing reporter gene as cycB1::GUS (Colón Carmona et al., 1999), MGD3::LUC, PHT1;4::LUC, At1g73010::LUC or various mutants affecting root response to low Pi such as: pdr2 (Ticconi et al., 2004), lpr1, lpr2 (Svistoonoff et al., 2007), lpi1, lpi2 and lpi3 (Sanchez-Calderon et al., 2006).
# (§5) In the Pi deficient medium, NaCl (0.5 mM) was used to replace the equivalent amount of sodium provided by NaH2PO4. For controls of the effects of the compounds, 1% of DMSO (Dimethyl sulfoxid, SIGMA, 472301), solvent for the tested compounds, was added. […] Root architecture and aerial part area were quantified using program ImageJ.
# [8] = tested on: pdr2 and phr1 mutants; experiment: Primary root growth of pdr2 and phr1 mutants; type: in vivo, Arabidopsis thaliana; details: 40 μM, 9 days after germination, FIG. 7 (E)
# Description: as §4, §5
# [9] = Optical density curves of PTN1 with FeCl2; type: physicochemical; details: PTN1 40 μM + FeCl2 10 μM, FIG. 9 (A)
# [10] = Fe content assay by ICP; type: in vivo, Arabidopsis thaliana; details: −Pi+PTN1 40 μM, FIG. 9 (B)
# Method: as §2
# [11] = tested on: Col-0 plants; experiment: Shoot (rosette) area after 28 days; type: in vivo, Arabidopsis thaliana; details: four weeks on −Pi medium, FIG. 10 (A), (B)
# Method: In the Pi deficient medium, NaCl (0.5 mM) was used to replace the equivalent amount of sodium provided by NaH2PO4. For controls of the effects of the compounds, 1% of DMSO (Dimethyl sulfoxid, SIGMA, 472301), solvent for the tested compounds, was added. After 2 days at 4° C., the plates were placed in a vertical position and plants were grown in a culture chamber under a 16 h light/8 h dark regime (24/21° C., 150 μE m^−2s^−1). For 4 weeks culture, large plates (24×24 cm) were placed in a horizontal position. Root architecture and aerial part area were quantified using program ImageJ.
# [12] = tested on: anthocyanin accumulation; experiment: Anthocyanins content; type: in vivo, Arabidopsis thaliana; details: FIG. 10 (C)
# Method: as §3
# [13] = 14-days-old roots, −Pi+PTN1 40 μM vs −Pi
# [14] = gene classes of Thibaud et al. (2010)
# [15] = −Pi medium containing PTN1, FIG. 5 (B)
structure (smiles),measurement,setting,value
O=c1c(Sc2ccc(Cl)cc2)c(Sc2ccc(Cl)cc2)c1=O [PTN1],genes de-regulated in an opposite way compared with +Pi treatment,"[1]; 40 μM, 14-days-old roots",around 4%
same,number of the 279 genes induced +Pi/−Pi also induced by PTN1,"[1]; 40 μM, 14-days-old roots",115 genes
same,number of the 279 genes induced +Pi/−Pi repressed by PTN1,"[1]; 40 μM, 14-days-old roots",11 genes
same,number of the 783 genes repressed +Pi/−Pi also repressed by PTN1,"[1]; 40 μM, 14-days-old roots",316 genes
same,number of the 783 genes repressed +Pi/−Pi induced by PTN1,"[1]; 40 μM, 14-days-old roots",30 genes
same,percentage of the 279 genes induced +Pi/−Pi also induced by PTN1,"[1]; 40 μM, 14-days-old roots",41% and 41.2%
same,percentage of the 279 genes induced +Pi/−Pi repressed by PTN1,"[1]; 40 μM, 14-days-old roots",3.9%
same,percentage of the 783 genes repressed +Pi/−Pi also repressed by PTN1,"[1]; 40 μM, 14-days-old roots",40% and 40.3%
same,percentage of the 783 genes repressed +Pi/−Pi induced by PTN1,"[1]; 40 μM, 14-days-old roots",3.8%
same,number of genes induced vs −Pi,[1]; [13],1001 genes
same,number of genes repressed vs −Pi,[1]; [13],1666 genes
same,number of genes modulated vs −Pi,"[1]; 14-days-old roots, −Pi+PTN1 40 μM vs −Pi, more than two fold change, Bonferroni <0.05",2667 genes
same,local genes repressed by Pi also repressed by PTN1,[1]; [14],45%
same,systemic genes induced by Pi also regulated by PTN1 in the same direction,[1]; [14],55%
same,systemic genes repressed by Pi also regulated by PTN1 in the same direction,[1]; [14],65%
same,expression of PHT1;5 and PHT1;8,[1]; transcriptomic analysis,down regulation
same,expression of lipid conversion genes including PLDζ2 and MGD3,[1]; transcriptomic analysis,down regulated
same,reduction of Pi uptake capacity,[2],25%
same,"phosphorous amount vs −Pi control, leaves",[3],+40%
same,"phosphorous amount vs −Pi control, shoot",[3],+90%
same,"expression of SQD2, MGD3, PLDz2, SQD1 and MGD2",[4],repressed the expression
same,reduction of DGDG content,"[5]; Pi-starved plants, aerial part, 10-day-old, FIG. 5 (C)",27%
same,glycolipids share in ratio of phospholipids onto glycolipids,[5]; [15],75%
same,phospholipids share in ratio of phospholipids onto glycolipids,[5]; [15],25%
same,PC and PE content,"[5]; −Pi seedlings, FIG. 5 (C)",partially reverted the effect of −Pi
same,root cortical cell elongation,[6],restored root cell elongation of −Pi seedlings to an extant closed to the untreated control grown on a +Pi medium
same,primary root growth of lpr1 or lpi mutants,[7],no additive effect; also recorded: did not impact the primary root growth
same,root growth of pdr2 mutant,[8],substantially reverted the root growth defect
same,root growth restriction of phr1 mutant imposed by −Pi,[8],partially alleviated
same,absorption spectrum of solution containing PTN1 and Fe2+,[9],identical to the PTN1 control without FeCl2
same,Fe content in plants,[10],did not reduce the Fe content
same,rosette area (leaf growth) vs −Pi,[11],+50%
same,"anthocyanin accumulated, less than control grown on −Pi",[12],around 60%
